Reference: patent EP4596574A1, “GLP-1/GCG/GIP TRIPLE-RECEPTOR AGONIST AND USE THEREOF” (Sunshine Lake Pharma Co., Ltd., priority 2022, dated 2024)
Starred links: 1 amine or outer side, 2 acyl side, 3 side chain; linkers in the order of their positions; H or OH if unused. Non-standard residues stand in square brackets, D forms with d. Residues, ends and D or L forms follow the SMILES beside them. Groups on a side chain read outwards from the residue. *: point of attachment. C18 diacid = O=C(O)CCCCCCCCCCCCCCCCC(=O)*; αMePhe(2-F) = C[C@](N)(Cc1ccccc1F)C(=O)O; γGlu = O=C(O)[C@H](CCC(=O)[*:2])N[*:1]; AEEA = NCCOCCOCC(=O)O; Aib = CC(C)(N)C(=O)O

Legend:
Type in all cases: cell-based
GIPR = molecular target: T1, GIPR (Homo sapiens, UniProt P48546); assay: In vitro cell activity, cAMP production in HEK293 cells expressing GIPR; conditions: HEK293-GIPR cells, cAMP; read-out: GIPR (EC50)
T1 construct: expressed in transfected cells; host or cells: HEK293 (HEK293-GIPR)
T1 sequence (P48546 22-466): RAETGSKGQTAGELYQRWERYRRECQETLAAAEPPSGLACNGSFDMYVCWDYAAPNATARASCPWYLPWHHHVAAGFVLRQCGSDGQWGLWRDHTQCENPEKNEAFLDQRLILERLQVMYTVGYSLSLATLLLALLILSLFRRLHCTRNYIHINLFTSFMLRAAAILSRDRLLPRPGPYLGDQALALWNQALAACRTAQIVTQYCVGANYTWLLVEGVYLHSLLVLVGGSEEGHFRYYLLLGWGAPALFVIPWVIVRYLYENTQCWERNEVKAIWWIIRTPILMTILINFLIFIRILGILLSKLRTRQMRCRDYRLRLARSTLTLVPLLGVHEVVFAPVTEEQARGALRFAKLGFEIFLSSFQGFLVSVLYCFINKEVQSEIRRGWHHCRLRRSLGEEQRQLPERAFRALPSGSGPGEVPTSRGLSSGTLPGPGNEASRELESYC
In short: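 cAMP accumulation is quantified by homogeneous TR-FRET (cAMP-d2 plus anti-cAMP cryptate) in GIPR-expressing HEK293 cells seeded from a 4×10^5 cells/mL suspension and treated with compound. The signal ratio is plotted against concentration and fitted to a four-parameter curve to give EC50.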

GLP-1R = molecular target: T2, GLP-1R (Homo sapiens, UniProt P43220); assay: In vitro cell activity, cAMP production in HEK293 cells expressing GLP-1R; conditions: HEK293-GLP-1R cells, cAMP; read-out: GLP-1R (EC50)
T2 construct: expressed in transfected cells; host or cells: HEK293 (HEK293-GLP-1R)
T2 sequence (P43220 24-463, species assumed): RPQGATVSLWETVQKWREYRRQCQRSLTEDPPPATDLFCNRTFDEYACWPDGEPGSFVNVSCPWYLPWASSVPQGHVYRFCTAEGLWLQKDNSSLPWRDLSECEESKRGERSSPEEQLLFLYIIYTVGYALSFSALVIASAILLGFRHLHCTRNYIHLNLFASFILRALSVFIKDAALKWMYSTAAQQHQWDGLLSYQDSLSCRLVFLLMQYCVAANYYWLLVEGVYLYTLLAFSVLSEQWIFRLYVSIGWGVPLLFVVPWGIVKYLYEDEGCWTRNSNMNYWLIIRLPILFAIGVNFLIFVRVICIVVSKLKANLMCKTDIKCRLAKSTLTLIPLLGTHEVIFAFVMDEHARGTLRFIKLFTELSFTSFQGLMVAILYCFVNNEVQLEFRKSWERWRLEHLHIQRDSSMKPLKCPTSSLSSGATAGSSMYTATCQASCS
In short: (§1)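 Cells were plated at 4×10^5 cells/mL, and detection reagents (cAMP-d2, anti-cAMP cryptate, 1:1) were incubated 1 h at room temperature in the dark or overnight at 4 °C.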

GCGR = molecular target: T3, GCGR (Homo sapiens, UniProt P47871); assay: In vitro cell activity, cAMP production in HEK293 cells expressing GCGR; conditions: HEK293-GCGR cells, cAMP; read-out: GCGR (EC50)
T3 construct: expressed in transfected cells; host or cells: HEK293 (HEK293-GCGR)
T3 sequence (P47871 26-477, species assumed): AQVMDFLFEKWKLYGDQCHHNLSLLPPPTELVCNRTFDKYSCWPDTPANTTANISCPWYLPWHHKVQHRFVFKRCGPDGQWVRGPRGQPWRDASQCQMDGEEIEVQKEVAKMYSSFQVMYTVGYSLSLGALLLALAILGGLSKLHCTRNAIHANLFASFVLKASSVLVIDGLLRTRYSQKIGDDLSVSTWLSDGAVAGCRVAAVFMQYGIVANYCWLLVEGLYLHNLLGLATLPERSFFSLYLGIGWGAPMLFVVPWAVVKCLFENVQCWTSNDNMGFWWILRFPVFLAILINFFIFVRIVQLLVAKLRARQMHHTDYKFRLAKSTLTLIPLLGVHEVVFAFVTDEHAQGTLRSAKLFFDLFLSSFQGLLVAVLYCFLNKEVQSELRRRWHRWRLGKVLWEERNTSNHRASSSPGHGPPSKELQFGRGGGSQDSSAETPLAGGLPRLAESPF
In short: as §1

Structure (SMILES) | EC50 (GIPR) | EC50 (GLP-1R) | EC50 (GCGR)
CC[C@H](C)[C@H](NC(=O)[C@H](Cc1ccccc1)NC(=O)[C@H](C)NC(=O)C(C)(C)NC(=O)[C@H](CCC(N)=O)NC(=O)[C@H](CCCNC(=N)N)NC(=O)[C@@H](NC(=O)[C@H](CCCCN)NC(=O)[C@H](CC(=O)O)NC(=O)[C@H](CCCCNC(=O)COCCOCCNC(=O)CC[C@H](NC(=O)CCCCCCCCCCCCCCCCC(=O)O)C(=O)O)NC(=O)[C@H](CC(C)C)NC(=O)[C@@H](NC(=O)[C@H](CO)NC(=O)[C@H](Cc1ccc(O)cc1)NC(=O)[C@H](CC(=O)O)NC(=O)[C@H](CO)NC(=O)[C@@H](NC(=O)[C@](C)(Cc1ccccc1F)NC(=O)[C@@H](NC(=O)CNC(=O)[C@H](CCC(N)=O)NC(=O)C(C)(C)NC(=O)[C@@H](N)Cc1ccc(O)cc1)[C@@H](C)O)[C@@H](C)O)[C@@H](C)CC)[C@@H](C)CC)C(=O)N[C@@H](CCC(=O)O)C(=O)N[C@@H](Cc1ccc(O)cc1)C(=O)N[C@@H](CC(C)C)C(=O)N[C@@H](CC(C)C)C(=O)N[C@@H](C)C(=O)NCC(=O)NCC(=O)N1CCC[C@H]1C(=O)N[C@@H](CO)C(=O)N[C@@H](CO)C(=O)NCC(=O)N[C@@H](C)C(=O)N1CCC[C@H]1C(=O)N1CCC[C@H]1C(=O)N1CCC[C@H]1C(=O)N[C@@H](CO)C(N)=O [HEC-PT145] (H-Y[Aib]QGT[αMePhe(2-F)]TSDYSILK([AEEA-γGlu-C18 diacid])DKIRQ[Aib]AFIEYLLAGGPSSGAPPPS-NH2) | 0.0316 nM | 0.126 nM | 0.066 nM
CC[C@H](C)[C@H](NC(=O)[C@H](Cc1ccccc1)NC(=O)[C@H](C)NC(=O)[C@H](CCC(N)=O)NC(=O)[C@H](CCC(N)=O)NC(=O)[C@H](CCCNC(=N)N)NC(=O)[C@@H](NC(=O)[C@H](CCCNC(=N)N)NC(=O)[C@H](CC(=O)O)NC(=O)[C@H](CCCCNC(=O)COCCOCCNC(=O)CC[C@H](NC(=O)CCCCCCCCCCCCCCCCC(=O)O)C(=O)O)NC(=O)[C@H](CC(C)C)NC(=O)[C@@H](NC(=O)[C@H](CO)NC(=O)[C@H](Cc1ccc(O)cc1)NC(=O)[C@H](CC(=O)O)NC(=O)[C@H](CO)NC(=O)[C@@H](NC(=O)[C@](C)(Cc1ccccc1F)NC(=O)[C@@H](NC(=O)CNC(=O)[C@H](CCC(N)=O)NC(=O)C(C)(C)NC(=O)[C@@H](N)Cc1ccc(O)cc1)[C@@H](C)O)[C@@H](C)O)[C@@H](C)CC)[C@@H](C)CC)C(=O)N[C@@H](CCC(=O)O)C(=O)N[C@@H](Cc1ccc(O)cc1)C(=O)N[C@@H](CC(C)C)C(=O)N[C@@H](CC(C)C)C(=O)N[C@@H](CCC(=O)O)C(=O)NCC(=O)NCC(=O)N1CCC[C@H]1C(=O)N[C@@H](CO)C(=O)N[C@@H](CO)C(=O)NCC(=O)N[C@@H](C)C(=O)N1CCC[C@H]1C(=O)N1CCC[C@H]1C(=O)N1CCC[C@H]1C(=O)N[C@@H](CO)C(=O)O [HEC-PT146] (H-Y[Aib]QGT[αMePhe(2-F)]TSDYSILK([AEEA-γGlu-C18 diacid])DRIRQQAFIEYLLEGGPSSGAPPPS-OH) | 0.105 nM | 0.365 nM | 0.121 nM
CC[C@H](C)[C@H](NC(=O)[C@H](Cc1ccccc1)NC(=O)[C@H](C)NC(=O)[C@H](CCC(N)=O)NC(=O)[C@H](CCC(N)=O)NC(=O)[C@H](CCCNC(=N)N)NC(=O)[C@@H](NC(=O)[C@H](CCCNC(=N)N)NC(=O)[C@H](CC(=O)O)NC(=O)[C@H](CCCCNC(=O)COCCOCCNC(=O)CC[C@H](NC(=O)CCCCCCCCCCCCCCCCC(=O)O)C(=O)O)NC(=O)[C@H](CC(C)C)NC(=O)[C@@H](NC(=O)[C@H](CO)NC(=O)[C@H](Cc1ccc(O)cc1)NC(=O)[C@H](CC(=O)O)NC(=O)[C@H](CO)NC(=O)[C@@H](NC(=O)[C@](C)(Cc1ccccc1F)NC(=O)[C@@H](NC(=O)CNC(=O)[C@H](CCC(N)=O)NC(=O)C(C)(C)NC(=O)[C@@H](N)Cc1ccc(O)cc1)[C@@H](C)O)[C@@H](C)O)[C@@H](C)CC)[C@@H](C)CC)C(=O)N[C@@H](CCC(=O)O)C(=O)N[C@@H](Cc1ccc(O)cc1)C(=O)N[C@@H](CC(C)C)C(=O)N[C@@H](CC(C)C)C(=O)N[C@@H](C)C(=O)NCC(=O)NCC(=O)N1CCC[C@H]1C(=O)N[C@@H](CO)C(=O)N[C@@H](CO)C(=O)NCC(=O)N[C@@H](C)C(=O)N1CCC[C@H]1C(=O)N1CCC[C@H]1C(=O)N1CCC[C@H]1C(=O)N[C@@H](CO)C(=O)O [HEC-PT147] (H-Y[Aib]QGT[αMePhe(2-F)]TSDYSILK([AEEA-γGlu-C18 diacid])DRIRQQAFIEYLLAGGPSSGAPPPS-OH) | 0.0861 nM | 0.174 nM | 0.17 nM
CC[C@H](C)[C@H](NC(=O)[C@H](CO)NC(=O)[C@H](Cc1ccc(O)cc1)NC(=O)[C@H](CC(=O)O)NC(=O)[C@H](CO)NC(=O)[C@@H](NC(=O)[C@](C)(Cc1ccccc1F)NC(=O)[C@@H](NC(=O)CNC(=O)[C@H](CCC(N)=O)NC(=O)C(C)(C)NC(=O)[C@@H](N)Cc1ccc(O)cc1)[C@@H](C)O)[C@@H](C)O)C(=O)N[C@@H](CC(C)C)C(=O)N[C@@H](CCCCNC(=O)COCCOCCNC(=O)CC[C@H](NC(=O)CCCCCCCCCCCCCCCCC(=O)O)C(=O)O)C(=O)N[C@@H](CC(=O)O)C(=O)N[C@@H](CCCNC(=N)N)C(=O)N[C@@H](CCCNC(=N)N)C(=O)N[C@@H](C)C(=O)N[C@@H](CCC(N)=O)C(=O)N[C@@H](CCC(N)=O)C(=O)N[C@@H](C)C(=O)N[C@@H](Cc1ccccc1)C(=O)N[C@H](C(=O)N[C@@H](CCC(=O)O)C(=O)N[C@@H](Cc1ccc(O)cc1)C(=O)N[C@@H](CC(C)C)C(=O)N[C@@H](CC(C)C)C(=O)N[C@@H](C)C(=O)NCC(=O)NCC(=O)N1CCC[C@H]1C(=O)N[C@@H](CO)C(=O)N[C@@H](CO)C(=O)NCC(=O)N[C@@H](C)C(=O)N1CCC[C@H]1C(=O)N1CCC[C@H]1C(=O)N1CCC[C@H]1C(=O)N[C@@H](CO)C(=O)O)C(C)C [HEC-PT148] (H-Y[Aib]QGT[αMePhe(2-F)]TSDYSILK([AEEA-γGlu-C18 diacid])DRRAQQAFVEYLLAGGPSSGAPPPS-OH) | 0.312 nM | 0.0741 nM | 0.162 nM
CC[C@H](C)[C@H](NC(=O)[C@H](CO)NC(=O)[C@H](Cc1ccc(O)cc1)NC(=O)[C@H](CC(=O)O)NC(=O)[C@H](CO)NC(=O)[C@@H](NC(=O)[C@](C)(Cc1ccccc1F)NC(=O)[C@@H](NC(=O)CNC(=O)[C@H](CCC(N)=O)NC(=O)C(C)(C)NC(=O)[C@@H](N)Cc1ccc(O)cc1)[C@@H](C)O)[C@@H](C)O)C(=O)N[C@@H](CC(C)C)C(=O)N[C@@H](CCCCNC(=O)COCCOCCNC(=O)CC[C@H](NC(=O)CCCCCCCCCCCCCCCCC(=O)O)C(=O)O)C(=O)N[C@@H](CC(=O)O)C(=O)N[C@@H](CCCNC(=N)N)C(=O)N[C@@H](CCCNC(=N)N)C(=O)N[C@@H](C)C(=O)N[C@@H](CCC(N)=O)C(=O)N[C@@H](CCC(N)=O)C(=O)N[C@@H](C)C(=O)N[C@@H](Cc1ccccc1)C(=O)N[C@H](C(=O)N[C@@H](CCC(=O)O)C(=O)N[C@@H](Cc1ccc(O)cc1)C(=O)N[C@@H](CC(C)C)C(=O)N[C@@H](CC(C)C)C(=O)N[C@@H](CCC(=O)O)C(=O)NCC(=O)NCC(=O)N1CCC[C@H]1C(=O)N[C@@H](CO)C(=O)N[C@@H](CO)C(=O)NCC(=O)N[C@@H](C)C(=O)N1CCC[C@H]1C(=O)N1CCC[C@H]1C(=O)N1CCC[C@H]1C(=O)N[C@@H](CO)C(=O)O)C(C)C [HEC-PT149] (H-Y[Aib]QGT[αMePhe(2-F)]TSDYSILK([AEEA-γGlu-C18 diacid])DRRAQQAFVEYLLEGGPSSGAPPPS-OH) | 0.264 nM | 0.0868 nM | 0.138 nM
CC[C@H](C)[C@H](NC(=O)[C@H](Cc1ccccc1)NC(=O)[C@H](C)NC(=O)[C@H](CCC(N)=O)NC(=O)[C@H](CCC(N)=O)NC(=O)[C@H](C)NC(=O)[C@H](CCCCNC(=O)COCCOCCNC(=O)CC[C@H](NC(=O)CCCCCCCCCCCCCCCCC(=O)O)C(=O)O)NC(=O)[C@H](CCCNC(=N)N)NC(=O)[C@H](CC(=O)O)NC(=O)[C@H](CC(C)C)NC(=O)[C@H](CC(C)C)NC(=O)[C@@H](NC(=O)[C@H](CO)NC(=O)[C@H](Cc1ccc(O)cc1)NC(=O)[C@H](CC(=O)O)NC(=O)[C@H](CO)NC(=O)[C@@H](NC(=O)[C@](C)(Cc1ccccc1F)NC(=O)[C@@H](NC(=O)CNC(=O)[C@H](Cc1c[nH]cn1)NC(=O)C(C)(C)NC(=O)[C@@H](N)Cc1c[nH]cn1)[C@@H](C)O)[C@@H](C)O)[C@@H](C)CC)C(=O)N[C@@H](CCC(=O)O)C(=O)N[C@@H](Cc1ccc(O)cc1)C(=O)N[C@@H](CC(C)C)C(=O)N[C@@H](CC(C)C)C(=O)N[C@@H](C)C(=O)NCC(=O)NCC(=O)N1CCC[C@H]1C(=O)N[C@@H](CO)C(=O)N[C@@H](CO)C(=O)NCC(=O)N[C@@H](C)C(=O)N1CCC[C@H]1C(=O)N1CCC[C@H]1C(=O)N1CCC[C@H]1C(=O)N[C@@H](CO)C(=O)O [HEC-PT153] | 0.0169 nM | 0.0752 nM | 0.0126 nM
